# According to ChEMBL document CHEMBL3992507, “Design, synthesis and evaluation of 4-aminoquinoline-purine hybrids as potential antiplasmodial agents” (Eur J Med Chem, 2017):
# The source made the active and inactive calls. The calls are words filed in the database; no cut-off is given here.
# Legend:
# [1] = Selectivity index, ratio of IC50 for African green monkey Vero cells to IC50 for chloroquine-sensitive Plasmodium falciparum D6 infected in human RBC; type: toxicity; details: read-out: Ratio IC50
# [2] = system: Vero; test: Cytotoxicity against African green monkey Vero cells after 48 hrs by neutral red uptake assay; type: cell-based; details: Chlorocebus sabaeus
# [3] = system: Plasmodium falciparum; test: Antiplasmodial activity against chloroquine-resistant Plasmodium falciparum W2 infected in human RBC assessed as decrease in parasite viability after 72 hrs by LDH assay; type: functional; details: W2, 72 h
# [4] = Selectivity index, ratio of IC50 for African green monkey Vero cells to IC50 for chloroquine-resistant Plasmodium falciparum W2 infected in human RBC; type: toxicity; details: read-out: Ratio IC50
# [5] = system: Plasmodium falciparum; test: Antiplasmodial activity against chloroquine-sensitive Plasmodium falciparum D6 infected in human RBC assessed as decrease in parasite viability after 72 hrs by LDH assay; type: functional; details: D6, 72 h
# [6] = system: Heme; test: Binding affinity to monomeric heme (unknown origin) assessed as decrease in intensity of soret band at 402 nm at pH 5.6 and 7.4 by spectrophotometric titration method
# [7] = system: Plasmodium falciparum; test: Potency index, ratio of chloroquine IC50 to compound IC50 for chloroquine-resistant Plasmodium falciparum W2; type: functional
# [8] = system: Heme; test: Binding affinity to monomeric heme (unknown origin) assessed as 1:1 stoichiometry for heme-compound complex at 10 uM at pH 5.6 and 7.4 by Job's plot analysis
# [9] = Binding affinity to dimeric heme (unknown origin) assessed as change in absorbance band intensity at 362 nm at 10 uM at pH 5.6 by spectrophotometric titration method
SMILES,selectivity ratio [1],IC50 [2] [nM],IC50 [3] [nM],selectivity ratio [4],IC50 [5] [nM],Activity [6],Ratio IC50 [7],Activity [8],Activity [9]
Clc1ccc2c(NCCn3cnc4c(N5CCN(c6ccccc6)CC5)nc(Cl)nc43)ccnc2c1,26.2,4040,428,9.4,154,–,–,–,–
CCN1CCN(c2nc(Cl)nc3c2ncn3CCCNc2ccnc3cc(Cl)ccc23)CC1,> 101,> 9830,198,> 49.5,97,–,–,–,–
CCN(CC)c1nc(Cl)nc2c1ncn2CCCNc1ccnc2cc(Cl)ccc12,> 19.3,> 10700,983,> 10.9,556,–,–,–,–
CCN(CC)CCCC(C)Nc1ccnc2cc(Cl)ccc12 (configuration not stated) [CHLOROQUINE],–,> 14900,–,–,–,–,–,–,–
Clc1ccc2c(NCCCn3cnc4c(N5CCSCC5)nc(Cl)nc43)ccnc2c1,> 22.6,> 10100,1800,> 5.6,446,–,–,–,–
C[C@@H]1CC[C@H]2[C@@H](C)C(=O)O[C@@H]3O[C@@]4(C)CC[C@@H]1[C@]32OO4 [ARTEMISININ],–,> 16900,–,–,25,–,–,–,–
CCN(CC)c1nc(Cl)nc2c1ncn2CCNc1ccnc2cc(Cl)ccc12,> 2.4,> 11100,6760,> 1.6,4650,–,–,–,–
Clc1ccc2c(NCCn3cnc4c(N5CCSCC5)nc(Cl)nc43)ccnc2c1,19.5,5680,590,9.6,292,–,–,–,–
Clc1ccc2c(NCCn3cnc4c(N5CCOCC5)nc(Cl)nc43)ccnc2c1,> 53.4,> 10700,226,> 47.4,201,–,–,–,–
CN1CCN(c2nc(Cl)nc3c2ncn3CCCNc2ccnc3cc(Cl)ccc23)CC1,> 145,> 10100,185,> 54.5,69,–,–,–,–
Clc1ccc2c(NCCCn3cnc4c(N5CCCC5)nc(Cl)nc43)ccnc2c1,> 10,> 10800,1760,> 6.1,1080,–,–,–,–
Clc1ccc2c(NCCCn3cnc4c(N5CCCCCC5)nc(Cl)nc43)ccnc2c1,> 8.3,> 10100,2380,> 4.3,1230,–,–,–,–
CCN1CCN(c2nc(Cl)nc3c2ncn3CCNc2ccnc3cc(Cl)ccc23)CC1,> 164,> 10100,80,> 125,61,Active,6,Active,Active
Clc1ccc2c(NCCn3cnc4c(N5CCCCCC5)nc(Cl)nc43)ccnc2c1,> 24.9,> 10400,729,> 14.3,419,–,–,–,–
CN(C)c1nc(Cl)nc2c1ncn2CCCNc1ccnc2cc(Cl)ccc12,> 45,> 11500,1090,> 10.5,254,–,–,–,–
Clc1ccc2c(NCCCn3cnc4c(N5CCCCC5)nc(Cl)nc43)ccnc2c1,> 3.1,> 10400,3760,> 2.8,3330,–,–,–,–
CN1CCN(c2nc(Cl)nc3c2ncn3CCNc2ccnc3cc(Cl)ccc23)CC1,> 124,> 10400,122,> 85.4,84,–,–,–,–
CN(C)c1nc(Cl)nc2c1ncn2CCNc1ccnc2cc(Cl)ccc12,> 46.6,> 11900,361,> 32.8,254,–,–,–,–
Clc1ccc2c(NCCCn3cnc4c(N5CCOCC5)nc(Cl)nc43)ccnc2c1,> 12.5,> 10400,1150,> 9.1,833,–,–,–,–
Clc1ccc2c(NCCn3cnc4c(N5CCCCC5)nc(Cl)nc43)ccnc2c1,> 31.1,> 10800,2450,> 4.4,347,–,–,–,–
Clc1ccc2c(NCCCn3cnc4c(N5CCN(c6ccccc6)CC5)nc(Cl)nc43)ccnc2c1,> 47.6,> 8900,504,> 17.7,187,–,–,–,–
Clc1ccc2c(NCCn3cnc4c(N5CCCC5)nc(Cl)nc43)ccnc2c1,> 25,> 11100,984,> 11.3,445,–,–,–,–
